In ChEMBL document CHEMBL5465560, “Selectivity Literature for EUbOPEN Chemogenomic Library” (2024):

What was measured:
[1] = target: Interleukin-1 receptor-associated kinase 3 (Homo sapiens, UniProt Q9Y616); assay: Selectivity interaction (NanoBRET assay (in HEK293T cells)) EUB0001492b IRAK3; format: cell-based, HEK-293T
[2] = target: Cyclin-G-associated kinase (Homo sapiens, UniProt O14976); assay: Selectivity interaction (Kinase panel (enzymatic assay, literature)) EUB0001492b GAK
[3] = target: 5-hydroxytryptamine receptor 1D (Homo sapiens) (UniProt P28221); assay: Selectivity interaction (GPCR panel (PDSP screen)) EUB0001492b HTR1D; conditions: at 10 µM
[4] = target: T1, 5-hydroxytryptamine receptor 1A (Homo sapiens) (UniProt P08908); assay: Selectivity interaction (GPCR panel (PDSP screen)) EUB0001492b HTR1A; conditions: at 10 µM
T1 sequence (whole entry): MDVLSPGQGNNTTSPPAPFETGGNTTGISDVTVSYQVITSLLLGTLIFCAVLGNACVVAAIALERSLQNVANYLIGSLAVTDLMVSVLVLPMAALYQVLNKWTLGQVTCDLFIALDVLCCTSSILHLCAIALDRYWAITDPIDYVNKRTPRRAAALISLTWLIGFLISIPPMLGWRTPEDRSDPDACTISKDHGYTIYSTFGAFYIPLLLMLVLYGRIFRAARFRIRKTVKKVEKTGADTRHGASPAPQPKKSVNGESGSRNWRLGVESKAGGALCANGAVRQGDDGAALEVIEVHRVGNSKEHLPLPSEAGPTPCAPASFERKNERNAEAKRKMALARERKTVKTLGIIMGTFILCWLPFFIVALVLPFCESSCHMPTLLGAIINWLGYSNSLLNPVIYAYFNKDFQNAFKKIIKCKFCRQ

[5] = target: Alpha-1D adrenergic receptor (Homo sapiens) (UniProt P25100); assay: Selectivity interaction (GPCR panel (PDSP screen)) EUB0001492b ADRA1D; conditions: at 10 µM
D(3) dopamine receptor = D(3) dopamine receptor (Homo sapiens, UniProt P35462); assay: Selectivity interaction (GPCR panel (PDSP screen)) EUB0001492b DRD3; conditions: at 10 µM
[6] = target: T2, 4-aminobutyrate aminotransferase, mitochondrial (Homo sapiens, UniProt P80404); assay: (§1) Selectivity interaction (GPCR panel (PDSP screen)) EUB0001492b ABAT
D(2) dopamine receptor = D(2) dopamine receptor (Homo sapiens, UniProt P14416); assay: Selectivity interaction (GPCR panel (PDSP screen)) EUB0001492b DRD2; conditions: at 10 µM
[7] = target: T2, 4-aminobutyrate aminotransferase, mitochondrial; assay: as §1; conditions: at 10 µM
[8] = target: D(4) dopamine receptor (Homo sapiens) (UniProt P21917); assay: Selectivity interaction (GPCR panel (PDSP screen)) EUB0001492b DRD4; conditions: at 10 µM
[9] = target: Beta-3 adrenergic receptor (Homo sapiens) (UniProt P13945); assay: Selectivity interaction (GPCR panel (PDSP screen)) EUB0001492b ADRB3; conditions: at 10 µM
[10] = target: T3, Alpha-2C adrenergic receptor (Homo sapiens) (UniProt P18825); assay: Selectivity interaction (GPCR panel (PDSP screen)) EUB0001492b ADRA2C; conditions: at 10 µM
T3 sequence (whole entry): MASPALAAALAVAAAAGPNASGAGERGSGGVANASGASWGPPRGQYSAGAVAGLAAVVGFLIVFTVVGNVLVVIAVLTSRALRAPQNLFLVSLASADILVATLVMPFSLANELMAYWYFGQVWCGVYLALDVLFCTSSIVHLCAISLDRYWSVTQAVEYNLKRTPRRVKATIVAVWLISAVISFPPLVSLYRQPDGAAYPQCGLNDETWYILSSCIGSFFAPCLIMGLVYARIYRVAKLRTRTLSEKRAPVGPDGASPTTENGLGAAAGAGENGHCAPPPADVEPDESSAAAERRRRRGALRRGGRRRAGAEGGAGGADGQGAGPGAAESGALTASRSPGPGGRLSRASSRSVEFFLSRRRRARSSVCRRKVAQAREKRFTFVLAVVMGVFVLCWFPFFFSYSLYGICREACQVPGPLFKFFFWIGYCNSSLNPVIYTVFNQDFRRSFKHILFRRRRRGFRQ

[11] = target: AP2-associated protein kinase 1 (Homo sapiens, UniProt Q2M2I8); assay: Selectivity interaction (Kinase panel (enzymatic assay, literature)) EUB0001492b AAK1
[12] = target: T4, Gamma-aminobutyric acid receptor subunit alpha-1 (Homo sapiens) (UniProt P14867); assay: Selectivity interaction (GPCR panel (PDSP screen)) EUB0001492b GABRA1; conditions: at 10 µM
T4 sequence (whole entry): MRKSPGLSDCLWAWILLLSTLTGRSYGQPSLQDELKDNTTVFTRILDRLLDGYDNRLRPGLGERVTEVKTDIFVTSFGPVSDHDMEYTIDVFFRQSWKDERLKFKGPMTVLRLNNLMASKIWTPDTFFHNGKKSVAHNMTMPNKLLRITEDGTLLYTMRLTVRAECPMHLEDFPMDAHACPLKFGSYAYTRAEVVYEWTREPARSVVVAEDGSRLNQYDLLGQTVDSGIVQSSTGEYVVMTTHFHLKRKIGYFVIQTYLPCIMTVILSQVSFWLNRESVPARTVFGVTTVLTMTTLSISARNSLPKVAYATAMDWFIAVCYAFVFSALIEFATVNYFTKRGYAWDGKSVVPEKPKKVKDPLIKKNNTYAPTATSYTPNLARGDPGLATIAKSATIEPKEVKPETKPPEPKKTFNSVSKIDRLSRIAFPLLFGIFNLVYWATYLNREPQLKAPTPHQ

[13] = target: T5, Alpha-1A adrenergic receptor (Homo sapiens) (UniProt P35348); assay: Selectivity interaction (GPCR panel (PDSP screen)) EUB0001492b ADRA1A; conditions: at 10 µM
T5 sequence (whole entry): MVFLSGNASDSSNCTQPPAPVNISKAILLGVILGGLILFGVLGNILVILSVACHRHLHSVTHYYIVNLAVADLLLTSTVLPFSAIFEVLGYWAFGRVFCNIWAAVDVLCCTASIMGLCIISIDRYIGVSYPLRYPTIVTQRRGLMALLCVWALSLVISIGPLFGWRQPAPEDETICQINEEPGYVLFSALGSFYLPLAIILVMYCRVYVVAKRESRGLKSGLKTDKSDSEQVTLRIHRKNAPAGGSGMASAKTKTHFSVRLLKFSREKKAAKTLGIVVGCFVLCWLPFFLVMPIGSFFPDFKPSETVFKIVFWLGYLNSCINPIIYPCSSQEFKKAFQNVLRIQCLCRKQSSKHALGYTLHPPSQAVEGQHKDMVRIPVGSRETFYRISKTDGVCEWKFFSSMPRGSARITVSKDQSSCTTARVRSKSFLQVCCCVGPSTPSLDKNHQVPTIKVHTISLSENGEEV

[14] = target: 5-hydroxytryptamine receptor 7 (Homo sapiens) (UniProt P34969); assay: Selectivity interaction (GPCR panel (PDSP screen)) EUB0001492b HTR7; conditions: at 10 µM
[15] = target: Muscarinic acetylcholine receptor M3 (Homo sapiens, UniProt P20309); assay: Selectivity interaction (GPCR panel (PDSP screen)) EUB0001492b CHRM3; conditions: at 10 µM
D(1A) dopamine receptor = D(1A) dopamine receptor (Homo sapiens, UniProt P21728); assay: Selectivity interaction (GPCR panel (PDSP screen)) EUB0001492b DRD1; conditions: at 10 µM
[16] = target: RAC-gamma serine/threonine-protein kinase (Homo sapiens, UniProt Q9Y243); assay: Selectivity interaction (NanoBRET assay (HEK293T cells)) EUB0001563a AKT3; format: cell-based; conditions: hek-293t
[17] = target: Homeodomain-interacting protein kinase 3 (Homo sapiens, UniProt Q9H422); assay: Selectivity interaction (KinomeScan (DiscoverX, competition-binding assay)) EUB0001547a HIPK3
[18] = target: Mitogen-activated protein kinase 15 (Homo sapiens, UniProt Q8TD08); assay: Selectivity interaction (KinomeScan (DiscoverX, competition binding assay)) EUB0001547a MAPK15
[19] = target: Calcium/calmodulin-dependent protein kinase type IV (Homo sapiens, UniProt Q16566); assay: Selectivity interaction (KinomeScan (DiscoverX, competition-binding assay)) EUB0001547a CAMK4
[20] = target: Serine/threonine-protein kinase 17B (Homo sapiens, UniProt O94768); assay: Selectivity interaction (KinomeScan (competition-binding assay, DiscoverX)) EUB0001547a STK17B
[21] = target: Cyclin-dependent kinase 7 (Homo sapiens, UniProt P50613); assay: Selectivity interaction (KinomeScan (DiscoverX, competition-binding assay)) EUB0001547a CDK7
[22] = target: Death-associated protein kinase 1 (Homo sapiens, UniProt P53355); assay: Selectivity interaction (KinomeScan (DiscoverX, competition-binding assay)) EUB0001547a DAPK1
[23] = target: T6, Mitotic checkpoint serine/threonine-protein kinase BUB1 (Homo sapiens, UniProt O43683); assay: Selectivity interaction (Kinase panel (literature)) EUB0001549a BUB1
[24] = target: Sodium/nucleoside cotransporter 1 (Homo sapiens) (UniProt O00337); assay: Selectivity interaction (Eurofins-Panlabs Screen) EUB0001548a SLC28A1; conditions: at 10 µM
[25] = target: Prostaglandin G/H synthase 1 (Homo sapiens) (UniProt P23219); assay: Selectivity interaction (Eurofins-Panlabs Screen) EUB0001548a PTGS1; conditions: at 10 µM
Adenosine receptor A2a = Adenosine receptor A2a (Homo sapiens, UniProt P29274); assay: Selectivity interaction (Eurofins-Panlabs Screen) EUB0001548a ADORA2A; conditions: at 10 µM
[26] = target: Serine/threonine-protein kinase 10 (Homo sapiens) (UniProt O94804); assay: Selectivity interaction (KinomeScan (DiscoverX)) EUB0001548a STK10; conditions: at 1 µM
[27] = target: Sodium/nucleoside cotransporter 1 (Homo sapiens, UniProt O00337); assay: Selectivity interaction (Eurofins-Panlabs Screen (enzymatic assay)) EUB0001548a SLC28A1
[28] = target: 3',5'-cyclic-AMP phosphodiesterase 4A (Homo sapiens, UniProt P27815); assay: Selectivity interaction (Eurofins-Panlabs Screen) EUB0001548a PDE4A; conditions: at 10 µM
[29] = target: T7, Dual specificity tyrosine-phosphorylation-regulated kinase 1B (Homo sapiens, UniProt Q9Y463); assay: Selectivity interaction (KinomeScan (DiscoverX)) EUB0001548a DYRK1B; conditions: at 1 µM
[30] = target: Sodium channel protein type 2 subunit alpha (Homo sapiens) (UniProt Q99250); assay: Selectivity interaction (Eurofins-Panlabs Screen) EUB0001548a SCN2A; conditions: at 10 µM
[31] = target: T6, Mitotic checkpoint serine/threonine-protein kinase BUB1; assay: Selectivity interaction (KinomeScan (DiscoverX, competition binding assay)) EUB0001548a BUB1
[32] = target: T6, Mitotic checkpoint serine/threonine-protein kinase BUB1; assay: Selectivity interaction (TR-FRET kinase assay ) EUB0001548a BUB1
[33] = target: T4, Gamma-aminobutyric acid receptor subunit alpha-1 (Homo sapiens); assay: Selectivity interaction (Eurofins-Panlabs Screen) EUB0001548a GABRA1; conditions: at 10 µM
[34] = target: T7, Dual specificity tyrosine-phosphorylation-regulated kinase 1B; assay: Selectivity interaction (Kinome Scan (DiscoverX, competition binding assay)) EUB0001548a DYRK1B

T6 sequence (O43683 whole entry): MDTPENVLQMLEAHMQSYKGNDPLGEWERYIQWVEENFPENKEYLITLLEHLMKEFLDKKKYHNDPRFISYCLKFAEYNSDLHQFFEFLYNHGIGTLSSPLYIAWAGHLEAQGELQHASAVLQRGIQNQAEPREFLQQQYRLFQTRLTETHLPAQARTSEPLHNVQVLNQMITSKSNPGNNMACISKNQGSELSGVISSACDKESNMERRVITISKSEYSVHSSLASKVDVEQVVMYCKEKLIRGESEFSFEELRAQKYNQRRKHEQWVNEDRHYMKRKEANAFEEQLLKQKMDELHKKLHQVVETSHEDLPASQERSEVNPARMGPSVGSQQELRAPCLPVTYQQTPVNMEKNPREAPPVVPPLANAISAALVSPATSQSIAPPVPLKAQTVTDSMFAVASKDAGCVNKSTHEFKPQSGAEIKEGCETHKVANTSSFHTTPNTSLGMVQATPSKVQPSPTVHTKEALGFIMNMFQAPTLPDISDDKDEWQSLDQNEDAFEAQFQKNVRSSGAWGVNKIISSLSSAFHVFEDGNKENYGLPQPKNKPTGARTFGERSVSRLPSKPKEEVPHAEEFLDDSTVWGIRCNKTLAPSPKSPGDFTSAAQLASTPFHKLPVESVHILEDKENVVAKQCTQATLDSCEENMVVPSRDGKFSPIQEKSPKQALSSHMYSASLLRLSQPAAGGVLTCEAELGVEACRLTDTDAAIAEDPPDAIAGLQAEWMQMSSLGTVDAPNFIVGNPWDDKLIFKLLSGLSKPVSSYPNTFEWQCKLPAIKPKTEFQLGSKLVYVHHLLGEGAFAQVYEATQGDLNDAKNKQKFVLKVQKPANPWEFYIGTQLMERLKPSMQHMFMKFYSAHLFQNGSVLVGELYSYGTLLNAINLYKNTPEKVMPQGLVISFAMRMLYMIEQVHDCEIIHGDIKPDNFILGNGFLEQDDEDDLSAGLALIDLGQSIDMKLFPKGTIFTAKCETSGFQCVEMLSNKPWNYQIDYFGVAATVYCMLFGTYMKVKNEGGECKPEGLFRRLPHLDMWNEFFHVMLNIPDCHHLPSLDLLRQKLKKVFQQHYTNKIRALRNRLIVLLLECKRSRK
T2 sequence (P80404 whole entry): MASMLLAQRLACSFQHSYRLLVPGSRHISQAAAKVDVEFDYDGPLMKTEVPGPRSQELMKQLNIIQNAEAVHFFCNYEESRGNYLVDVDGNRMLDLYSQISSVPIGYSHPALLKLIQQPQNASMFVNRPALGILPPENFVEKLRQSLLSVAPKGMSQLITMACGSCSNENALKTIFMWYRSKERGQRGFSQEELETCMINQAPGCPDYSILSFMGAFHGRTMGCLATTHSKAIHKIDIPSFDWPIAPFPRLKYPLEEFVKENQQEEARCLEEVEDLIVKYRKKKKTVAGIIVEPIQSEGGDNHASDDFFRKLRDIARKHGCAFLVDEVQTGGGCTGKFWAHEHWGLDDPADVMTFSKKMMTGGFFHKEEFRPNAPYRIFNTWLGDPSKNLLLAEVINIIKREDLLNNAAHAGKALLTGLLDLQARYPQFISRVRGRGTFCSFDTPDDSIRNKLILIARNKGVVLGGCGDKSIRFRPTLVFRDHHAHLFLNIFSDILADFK
Chain of Prostaglandin G/H synthase 1 (Homo sapiens) (P23219 whole entry): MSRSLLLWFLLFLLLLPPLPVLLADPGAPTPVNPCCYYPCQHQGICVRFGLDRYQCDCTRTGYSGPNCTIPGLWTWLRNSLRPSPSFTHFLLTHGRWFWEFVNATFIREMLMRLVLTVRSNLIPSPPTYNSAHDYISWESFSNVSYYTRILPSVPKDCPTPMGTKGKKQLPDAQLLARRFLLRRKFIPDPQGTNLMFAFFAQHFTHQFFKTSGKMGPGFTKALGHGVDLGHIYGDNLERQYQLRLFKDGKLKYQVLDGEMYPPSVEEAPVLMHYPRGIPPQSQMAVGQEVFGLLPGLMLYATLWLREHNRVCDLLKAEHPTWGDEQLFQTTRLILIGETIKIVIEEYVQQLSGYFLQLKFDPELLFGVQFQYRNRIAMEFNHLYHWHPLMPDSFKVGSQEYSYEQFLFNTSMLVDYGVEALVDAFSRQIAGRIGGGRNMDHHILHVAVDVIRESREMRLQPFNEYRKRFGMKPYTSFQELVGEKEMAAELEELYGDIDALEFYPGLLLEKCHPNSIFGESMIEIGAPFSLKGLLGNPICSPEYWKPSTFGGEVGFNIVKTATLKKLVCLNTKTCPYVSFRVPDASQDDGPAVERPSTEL
Chain of Sodium/nucleoside cotransporter 1 (Homo sapiens) (O00337 whole entry): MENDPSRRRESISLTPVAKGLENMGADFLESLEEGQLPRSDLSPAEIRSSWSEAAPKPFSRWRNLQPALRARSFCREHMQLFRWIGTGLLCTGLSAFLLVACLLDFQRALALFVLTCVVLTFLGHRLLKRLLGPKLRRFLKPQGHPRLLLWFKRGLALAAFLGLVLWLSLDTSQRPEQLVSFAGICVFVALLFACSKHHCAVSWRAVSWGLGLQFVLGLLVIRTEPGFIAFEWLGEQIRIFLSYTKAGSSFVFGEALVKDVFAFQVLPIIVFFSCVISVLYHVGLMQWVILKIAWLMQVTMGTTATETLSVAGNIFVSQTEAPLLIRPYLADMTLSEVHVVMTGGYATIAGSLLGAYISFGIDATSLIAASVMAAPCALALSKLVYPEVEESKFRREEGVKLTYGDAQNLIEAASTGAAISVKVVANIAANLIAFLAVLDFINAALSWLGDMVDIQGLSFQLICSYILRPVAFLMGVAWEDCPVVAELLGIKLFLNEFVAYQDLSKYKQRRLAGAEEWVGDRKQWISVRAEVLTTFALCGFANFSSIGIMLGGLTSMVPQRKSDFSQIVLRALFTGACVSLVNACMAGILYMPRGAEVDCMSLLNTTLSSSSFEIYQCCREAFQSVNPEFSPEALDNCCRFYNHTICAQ
Chain of Sodium/nucleoside cotransporter 1 (O00337 whole entry): as above
Chain of Serine/threonine-protein kinase 17B (O94768 whole entry): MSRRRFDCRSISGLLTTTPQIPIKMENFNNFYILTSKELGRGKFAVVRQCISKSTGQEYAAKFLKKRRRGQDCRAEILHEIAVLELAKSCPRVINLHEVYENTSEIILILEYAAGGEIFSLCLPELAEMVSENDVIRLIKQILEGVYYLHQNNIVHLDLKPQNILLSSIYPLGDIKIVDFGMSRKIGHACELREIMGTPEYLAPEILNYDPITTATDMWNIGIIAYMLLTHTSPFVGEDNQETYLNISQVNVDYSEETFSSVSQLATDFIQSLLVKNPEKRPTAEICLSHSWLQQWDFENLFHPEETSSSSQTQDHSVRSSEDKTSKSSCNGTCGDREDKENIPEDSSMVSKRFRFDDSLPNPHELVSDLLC
Chain of 3',5'-cyclic-AMP phosphodiesterase 4A (P27815 whole entry): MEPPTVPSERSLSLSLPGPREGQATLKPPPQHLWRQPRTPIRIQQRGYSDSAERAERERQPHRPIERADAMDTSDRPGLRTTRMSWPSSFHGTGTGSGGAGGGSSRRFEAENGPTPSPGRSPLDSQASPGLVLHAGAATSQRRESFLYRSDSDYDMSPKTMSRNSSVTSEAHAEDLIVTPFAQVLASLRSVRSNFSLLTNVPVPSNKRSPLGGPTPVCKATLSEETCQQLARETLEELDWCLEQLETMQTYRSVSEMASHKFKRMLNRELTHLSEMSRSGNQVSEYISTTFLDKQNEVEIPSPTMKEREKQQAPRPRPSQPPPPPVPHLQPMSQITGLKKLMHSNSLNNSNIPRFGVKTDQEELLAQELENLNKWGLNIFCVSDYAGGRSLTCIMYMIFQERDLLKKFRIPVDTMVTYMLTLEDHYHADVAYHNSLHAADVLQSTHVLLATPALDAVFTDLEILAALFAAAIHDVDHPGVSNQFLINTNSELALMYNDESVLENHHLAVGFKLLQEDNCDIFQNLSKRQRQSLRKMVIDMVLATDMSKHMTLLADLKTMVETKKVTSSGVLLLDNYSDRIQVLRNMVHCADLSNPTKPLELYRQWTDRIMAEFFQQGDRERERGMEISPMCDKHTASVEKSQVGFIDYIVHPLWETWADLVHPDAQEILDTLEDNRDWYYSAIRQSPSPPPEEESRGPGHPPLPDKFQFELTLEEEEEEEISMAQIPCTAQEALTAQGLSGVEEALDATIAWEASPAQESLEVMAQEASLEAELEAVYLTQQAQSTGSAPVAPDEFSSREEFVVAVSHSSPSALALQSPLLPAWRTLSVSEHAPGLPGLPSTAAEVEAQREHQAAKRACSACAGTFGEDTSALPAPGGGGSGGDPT
Chain of D(4) dopamine receptor (Homo sapiens) (P21917 whole entry): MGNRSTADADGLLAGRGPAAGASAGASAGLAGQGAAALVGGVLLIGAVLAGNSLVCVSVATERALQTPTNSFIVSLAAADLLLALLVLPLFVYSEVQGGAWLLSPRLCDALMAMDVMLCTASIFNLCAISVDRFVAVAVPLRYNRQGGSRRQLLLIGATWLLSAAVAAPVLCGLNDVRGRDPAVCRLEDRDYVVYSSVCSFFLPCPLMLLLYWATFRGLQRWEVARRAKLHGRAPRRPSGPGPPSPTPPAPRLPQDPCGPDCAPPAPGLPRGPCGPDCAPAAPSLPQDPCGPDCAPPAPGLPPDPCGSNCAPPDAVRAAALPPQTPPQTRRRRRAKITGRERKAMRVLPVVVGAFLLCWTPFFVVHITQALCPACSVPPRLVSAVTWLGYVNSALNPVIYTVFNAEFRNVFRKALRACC
Chain of Calcium/calmodulin-dependent protein kinase type IV (Q16566 whole entry): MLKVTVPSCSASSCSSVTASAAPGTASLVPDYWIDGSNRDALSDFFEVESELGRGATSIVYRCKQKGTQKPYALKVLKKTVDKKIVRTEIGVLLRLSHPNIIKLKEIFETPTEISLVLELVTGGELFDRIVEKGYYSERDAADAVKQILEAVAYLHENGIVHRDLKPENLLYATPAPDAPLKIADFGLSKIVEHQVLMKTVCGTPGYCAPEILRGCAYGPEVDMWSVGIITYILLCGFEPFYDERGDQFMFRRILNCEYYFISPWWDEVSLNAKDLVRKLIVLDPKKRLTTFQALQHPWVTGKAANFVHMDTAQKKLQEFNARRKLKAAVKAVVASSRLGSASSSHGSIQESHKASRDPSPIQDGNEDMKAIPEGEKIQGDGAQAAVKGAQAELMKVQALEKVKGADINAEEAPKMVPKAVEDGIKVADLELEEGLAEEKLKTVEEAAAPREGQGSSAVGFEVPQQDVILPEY

CCC(F)(F)c1cc(N2CCC(S(C)(=O)=O)CC2)nc2sc(C(N)=O)c(N)c12 [BI-605906]
IC50 [1]: > 20 µM | IC50 [2]: 0.272 µM | % of inhibition [3]: 26.9% | % of inhibition [4]: 14.4% | % of inhibition [5]: 36.7% | % of inhibition (D(3) dopamine receptor): 51.5% | Ki [6]: 2.62 µM | % of inhibition (D(2) dopamine receptor): 69.8% | % of inhibition [7]: 51.8% | % of inhibition [8]: 44.6% | % of inhibition [9]: 18% | % of inhibition [10]: 13.7% | IC50 [11]: 0.188 µM | % of inhibition [12]: 34.5% | % of inhibition [13]: 18.9% | % of inhibition [14]: 13.7% | % of inhibition [15]: 21.1% | % of inhibition (D(1A) dopamine receptor): 25.7%

C=CC(=O)Nc1ccc2[nH]c(=O)n(C3CCN(Cc4ccc(-c5ccc6c(c5)NC(=O)CO6)cc4)CC3)c2c1 [RL2578]
IC50 [16]: 18 µM

N[C@@H]1CCCN(c2c(/C=C3\SC(=O)NC3=O)cccc2-c2ccccc2)C1
Kd [17]: 0.48 µM | Kd [18]: 0.005 µM | Kd [19]: 0.36 µM | Kd [20]: 0.93 µM | Kd [21]: 0.038 µM | Kd [22]: 0.42 µM

COc1ccccc1Nc1nc(-c2nn(Cc3c(F)cc(OCCCO)cc3F)c3ccccc23)ncc1OC
IC50 [23]: > 20 µM

COc1cnccc1Nc1nc(-c2nn(Cc3c(F)cc(OCCO)cc3F)c3ccccc23)ncc1OC
% of inhibition [24]: 71% | % of inhibition [25]: 54% | % of inhibition (Adenosine receptor A2a): 67% | % of control [26]: 0.6% | IC50 [27]: 0.37 µM | % of inhibition [28]: 52% | % of control [29]: 6.7% | % of inhibition [30]: 53% | IC50 [31]: 0.0033 µM | IC50 [32]: 0.0043 µM | % of inhibition [33]: 60% | Kd [34]: > 30 µM
